Species on record: Rattus norvegicus
Assay: DrugMatrix - Regimen: Daily Repeat
Type: toxicity, organism-based, Sprague-Dawley
Design: regimen Daily Repeat, gender Male, age 6-8 weeks
Details: in vivo, po, route oral GAVAGE, vehicle .5 % CMC; for ABSOLUTE BASOPHIL / ABSOLUTE EOSINOPHIL / ABSOLUTE LYMPHOCYTE / ABSOLUTE MONOCYTE / ABSOLUTE SEGMENTED NEUTROPHIL / BASOPHIL / EOSINOPHIL / ERYTHROCYTE COUNT / HEMATOCRIT / HEMOGLOBIN / LEUKOCYTE COUNT / LYMPHOCYTE / MEAN CORPUSCULAR HEMOGLOBIN / MEAN CORPUSCULAR HEMOGLOBIN CONCENTRATION / MEAN CORPUSCULAR VOLUME / MONOCYTE / NEUTROPHIL / NUCLEATED RED BLOOD CELLS / PLATELET COUNT: tissue Blood; for ALANINE AMINOTRANSFERASE / ALBUMIN / ALKALINE PHOSPHATASE / ASPARTATE AMINOTRANSFERASE / BLOOD UREA NITROGEN / CARBON DIOXIDE / CHLORIDE / CHOLESTEROL / CREATINE PHOSPHOKINASE / CREATININE / GLUCOSE / LACTATE DEHYDROGENASE / LIPASE / PHOSPHORUS / POTASSIUM / SODIUM / TOTAL BILIRUBIN / TOTAL PROTEIN / URIC ACID: tissue Plasma
[1] = 200 mg/kg, 120 h, dose level Low, time 5 day
[2] = 1500 mg/kg, 72 h, dose level High, time 3 day
[3] = 1500 mg/kg, 120 h, dose level High, time 5 day

With `CCn1cc(C(=O)O)c(=O)c2cc(F)c(N3CCNCC3)cc21` [NORFLOXACIN] the “ABSOLUTE BASOPHIL” value [1] was 0 CELLS/uL, the “ABSOLUTE EOSINOPHIL” value [1] was 0 CELLS/uL and the “ABSOLUTE LYMPHOCYTE” value [1] was 13445.67 CELLS/uL. The “ABSOLUTE MONOCYTE” value [1] was 43.67 CELLS/uL, the “ABSOLUTE SEGMENTED NEUTROPHIL” value [1] was 644 CELLS/uL and the BASOPHIL [1] was 0%. For the same compound, the EOSINOPHIL [1] was 0%, the “ERYTHROCYTE COUNT” value [1] was 5.72 x10E6/uL and the HEMATOCRIT [1] was 35.23%. The HEMOGLOBIN [1] was 14.43 G/DL, the “LEUKOCYTE COUNT” value [1] was 14.13 x10E3/uL and the LYMPHOCYTE [1] was 95%. The “MEAN CORPUSCULAR HEMOGLOBIN” value [1] was 25.37 pg, the “MEAN CORPUSCULAR HEMOGLOBIN CONCENTRATION” value [1] was 41 G/DL and the “MEAN CORPUSCULAR VOLUME” value [1] was 61.8 fL. The MONOCYTE [1] was 0.33%, the NEUTROPHIL [1] was 4.67% and the “NUCLEATED RED BLOOD CELLS” value [1] was 0.33 /100WBC. The “PLATELET COUNT” value [1] was 1391.67 x10E3/uL, the “ALANINE AMINOTRANSFERASE” value [1] was 60.33 u/L and the ALBUMIN [1] was 4.43 G/DL. The “ALKALINE PHOSPHATASE” value [1] was 370.33 u/L, the “ASPARTATE AMINOTRANSFERASE” value [1] was 99 u/L and the “BLOOD UREA NITROGEN” value [1] was 15.67 mg/dL. For the same compound, the “CARBON DIOXIDE” value [1] was 26.67 mmol/L, the CHLORIDE [1] was 102 MEQ/L and the CHOLESTEROL [1] was 45.67 mg/dL. For the same compound, the “CREATINE PHOSPHOKINASE” value [1] was 920 u/L, the CREATININE [1] was 0.25 mg/dL and the GLUCOSE [1] was 138.67 mg/dL. The “LACTATE DEHYDROGENASE” value [1] was 195.67 u/L, the LIPASE [1] was 9.33 u/L and the PHOSPHORUS [1] was 12.13 mg/dL. For the same compound, the POTASSIUM [1] was 6.16 MEQ/L, the SODIUM [1] was 145 MEQ/L and the “TOTAL BILIRUBIN” value [1] was 0.2 mg/dL. The “TOTAL PROTEIN” value [1] was 6.3 G/DL, the “URIC ACID” value [1] was 1.53 mg/dL and the “ABSOLUTE BASOPHIL” value [2] was 0 CELLS/uL. The “ABSOLUTE EOSINOPHIL” value [2] was 108.33 CELLS/uL, the “ABSOLUTE LYMPHOCYTE” value [2] was 13773 CELLS/uL and the “ABSOLUTE MONOCYTE” value [2] was 98.33 CELLS/uL. The “ABSOLUTE SEGMENTED NEUTROPHIL” value [2] was 1087 CELLS/uL, the BASOPHIL [2] was 0% and the EOSINOPHIL [2] was 0.67%. For the same compound, the “ERYTHROCYTE COUNT” value [2] was 5.77 x10E6/uL, the HEMATOCRIT [2] was 37.03% and the HEMOGLOBIN [2] was 14.53 G/DL. The “LEUKOCYTE COUNT” value [2] was 15.07 x10E3/uL, the LYMPHOCYTE [2] was 91.33% and the “MEAN CORPUSCULAR HEMOGLOBIN” value [2] was 25.2 pg. For the same compound, the “MEAN CORPUSCULAR HEMOGLOBIN CONCENTRATION” value [2] was 39.23 G/DL, the “MEAN CORPUSCULAR VOLUME” value [2] was 64.2 fL and the MONOCYTE [2] was 0.67%. For the same compound, the NEUTROPHIL [2] was 7.33%, the “NUCLEATED RED BLOOD CELLS” value [2] was 0 /100WBC and the “PLATELET COUNT” value [2] was 1268.67 x10E3/uL. For the same compound, the “ALANINE AMINOTRANSFERASE” value [2] was 62.67 u/L, the ALBUMIN [2] was 4.2 G/DL and the “ALKALINE PHOSPHATASE” value [2] was 453 u/L. The “ASPARTATE AMINOTRANSFERASE” value [2] was 76 u/L, the “BLOOD UREA NITROGEN” value [2] was 16 mg/dL and the “CARBON DIOXIDE” value [2] was 32.33 mmol/L. The CHLORIDE [2] was 101.33 MEQ/L, the CHOLESTEROL [2] was 46.67 mg/dL and the “CREATINE PHOSPHOKINASE” value [2] was 192 u/L. For the same compound, the CREATININE [2] was 0.24 mg/dL, the GLUCOSE [2] was 128 mg/dL and the “LACTATE DEHYDROGENASE” value [2] was 150 u/L. For the same compound, the LIPASE [2] was 9.33 u/L, the PHOSPHORUS [2] was 11.07 mg/dL and the POTASSIUM [2] was 6.55 MEQ/L. The SODIUM [2] was 147.2 MEQ/L, the “TOTAL BILIRUBIN” value [2] was 0.13 mg/dL and the “TOTAL PROTEIN” value [2] was 6 G/DL. For the same compound, the “URIC ACID” value [2] was 1.13 mg/dL, the “ABSOLUTE BASOPHIL” value [3] was 0 CELLS/uL and the “ABSOLUTE EOSINOPHIL” value [3] was 0 CELLS/uL. For the same compound, the “ABSOLUTE LYMPHOCYTE” value [3] was 15656 CELLS/uL, the “ABSOLUTE MONOCYTE” value [3] was 107.67 CELLS/uL and the “ABSOLUTE SEGMENTED NEUTROPHIL” value [3] was 603 CELLS/uL. The BASOPHIL [3] was 0%, the EOSINOPHIL [3] was 0% and the “ERYTHROCYTE COUNT” value [3] was 5.97 x10E6/uL. The HEMATOCRIT [3] was 36.5%, the HEMOGLOBIN [3] was 14.8 G/DL and the “LEUKOCYTE COUNT” value [3] was 16.37 x10E3/uL. For the same compound, the LYMPHOCYTE [3] was 95.67%, the “MEAN CORPUSCULAR HEMOGLOBIN” value [3] was 24.83 pg and the “MEAN CORPUSCULAR HEMOGLOBIN CONCENTRATION” value [3] was 40.53 G/DL. For the same compound, the “MEAN CORPUSCULAR VOLUME” value [3] was 61.23 fL, the MONOCYTE [3] was 0.67% and the NEUTROPHIL [3] was 3.67%. For the same compound, the “NUCLEATED RED BLOOD CELLS” value [3] was 0 /100WBC, the “PLATELET COUNT” value [3] was 1304.33 x10E3/uL and the “ALANINE AMINOTRANSFERASE” value [3] was 82 u/L. For the same compound, the ALBUMIN [3] was 4.47 G/DL, the “ALKALINE PHOSPHATASE” value [3] was 305.67 u/L and the “ASPARTATE AMINOTRANSFERASE” value [3] was 89.67 u/L. The “BLOOD UREA NITROGEN” value [3] was 17.33 mg/dL, the “CARBON DIOXIDE” value [3] was 22.33 mmol/L and the CHLORIDE [3] was 102.33 MEQ/L. The CHOLESTEROL [3] was 48 mg/dL, the “CREATINE PHOSPHOKINASE” value [3] was 264 u/L and the CREATININE [3] was 0.43 mg/dL. The GLUCOSE [3] was 145.33 mg/dL, the “LACTATE DEHYDROGENASE” value [3] was 298.67 u/L and the LIPASE [3] was 12 u/L. The PHOSPHORUS [3] was 10.97 mg/dL, the POTASSIUM [3] was 6.62 MEQ/L and the SODIUM [3] was 145.07 MEQ/L. For the same compound, the “TOTAL BILIRUBIN” value [3] was 0.13 mg/dL, the “TOTAL PROTEIN” value [3] was 6.77 G/DL and the “URIC ACID” value [3] was 2.07 mg/dL.

— ChEMBL document CHEMBL3885881, “DrugMatrix”
